The target of assay [1] is T1, DNA replication licensing factor MCM4 (Homo sapiens, UniProt P33991).
T1 sequence (P33991 whole entry): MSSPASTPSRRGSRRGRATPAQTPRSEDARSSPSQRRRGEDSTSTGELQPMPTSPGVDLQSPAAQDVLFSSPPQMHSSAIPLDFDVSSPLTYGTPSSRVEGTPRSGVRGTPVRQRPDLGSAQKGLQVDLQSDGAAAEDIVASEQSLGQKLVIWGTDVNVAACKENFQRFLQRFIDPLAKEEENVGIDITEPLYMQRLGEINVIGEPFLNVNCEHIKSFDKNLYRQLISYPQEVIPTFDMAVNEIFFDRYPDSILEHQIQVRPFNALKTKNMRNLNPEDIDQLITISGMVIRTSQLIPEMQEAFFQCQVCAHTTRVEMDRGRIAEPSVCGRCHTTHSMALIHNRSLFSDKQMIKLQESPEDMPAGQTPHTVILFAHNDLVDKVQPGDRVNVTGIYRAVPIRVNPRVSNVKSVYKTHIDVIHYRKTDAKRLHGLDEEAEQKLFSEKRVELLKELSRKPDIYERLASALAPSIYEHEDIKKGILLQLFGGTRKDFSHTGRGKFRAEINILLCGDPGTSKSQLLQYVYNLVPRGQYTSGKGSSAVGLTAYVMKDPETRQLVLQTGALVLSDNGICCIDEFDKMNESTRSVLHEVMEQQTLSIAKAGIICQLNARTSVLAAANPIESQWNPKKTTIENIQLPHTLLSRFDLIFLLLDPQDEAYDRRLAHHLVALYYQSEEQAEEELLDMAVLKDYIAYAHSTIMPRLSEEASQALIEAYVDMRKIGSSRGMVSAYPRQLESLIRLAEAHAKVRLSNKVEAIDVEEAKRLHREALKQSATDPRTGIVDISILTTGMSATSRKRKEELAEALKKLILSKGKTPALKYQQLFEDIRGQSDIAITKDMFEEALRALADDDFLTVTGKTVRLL

For assay [2], the target named is TGF-beta receptor type-2 (Homo sapiens, UniProt P37173).
Chain of TGF-beta receptor type-2 (P37173 whole entry): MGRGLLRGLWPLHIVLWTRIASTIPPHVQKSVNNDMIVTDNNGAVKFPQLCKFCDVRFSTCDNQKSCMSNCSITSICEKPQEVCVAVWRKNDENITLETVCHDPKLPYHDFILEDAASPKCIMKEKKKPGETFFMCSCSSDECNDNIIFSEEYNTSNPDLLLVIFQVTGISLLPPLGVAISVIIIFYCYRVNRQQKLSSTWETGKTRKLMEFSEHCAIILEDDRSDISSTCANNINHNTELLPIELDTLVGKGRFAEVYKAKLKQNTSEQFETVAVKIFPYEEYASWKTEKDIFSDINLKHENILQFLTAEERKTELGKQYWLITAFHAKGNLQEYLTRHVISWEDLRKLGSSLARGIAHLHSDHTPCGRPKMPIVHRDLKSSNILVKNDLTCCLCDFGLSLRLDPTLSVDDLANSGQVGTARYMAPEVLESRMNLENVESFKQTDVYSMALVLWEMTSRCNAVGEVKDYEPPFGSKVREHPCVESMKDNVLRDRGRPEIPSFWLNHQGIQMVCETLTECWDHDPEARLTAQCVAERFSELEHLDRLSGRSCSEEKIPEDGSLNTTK
In assay [3] the target is Ephrin type-A receptor 4 (Homo sapiens, UniProt P54764).
Chain of Ephrin type-A receptor 4 (P54764 whole entry): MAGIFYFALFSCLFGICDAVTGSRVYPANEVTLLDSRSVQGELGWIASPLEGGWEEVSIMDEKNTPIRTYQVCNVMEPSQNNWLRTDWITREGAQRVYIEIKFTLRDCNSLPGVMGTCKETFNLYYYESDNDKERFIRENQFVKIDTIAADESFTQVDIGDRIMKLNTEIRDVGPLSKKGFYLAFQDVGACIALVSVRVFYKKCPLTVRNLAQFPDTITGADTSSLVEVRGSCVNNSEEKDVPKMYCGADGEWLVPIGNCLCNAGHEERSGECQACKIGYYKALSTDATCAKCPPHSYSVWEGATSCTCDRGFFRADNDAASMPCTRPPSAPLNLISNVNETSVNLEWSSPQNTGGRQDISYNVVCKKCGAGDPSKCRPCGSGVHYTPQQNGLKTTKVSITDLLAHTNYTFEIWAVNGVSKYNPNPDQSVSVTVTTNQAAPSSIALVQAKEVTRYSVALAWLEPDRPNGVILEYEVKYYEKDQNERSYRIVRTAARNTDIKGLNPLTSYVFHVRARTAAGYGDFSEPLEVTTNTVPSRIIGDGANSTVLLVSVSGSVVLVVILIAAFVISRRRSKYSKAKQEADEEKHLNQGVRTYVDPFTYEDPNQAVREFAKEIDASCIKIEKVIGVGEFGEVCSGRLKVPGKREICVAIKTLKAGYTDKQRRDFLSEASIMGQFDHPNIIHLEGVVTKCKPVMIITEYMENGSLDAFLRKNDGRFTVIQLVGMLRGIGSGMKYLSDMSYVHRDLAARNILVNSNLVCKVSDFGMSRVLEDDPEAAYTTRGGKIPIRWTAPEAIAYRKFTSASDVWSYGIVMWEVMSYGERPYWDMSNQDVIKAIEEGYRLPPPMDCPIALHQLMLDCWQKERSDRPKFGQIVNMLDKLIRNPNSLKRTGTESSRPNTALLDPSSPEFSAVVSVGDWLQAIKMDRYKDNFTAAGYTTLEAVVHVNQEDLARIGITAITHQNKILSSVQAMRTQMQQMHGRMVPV
Assay [4] has as its target T2, dCTP pyrophosphatase 1 (Homo sapiens, UniProt Q9H773).
T2 sequence (Q9H773 whole entry): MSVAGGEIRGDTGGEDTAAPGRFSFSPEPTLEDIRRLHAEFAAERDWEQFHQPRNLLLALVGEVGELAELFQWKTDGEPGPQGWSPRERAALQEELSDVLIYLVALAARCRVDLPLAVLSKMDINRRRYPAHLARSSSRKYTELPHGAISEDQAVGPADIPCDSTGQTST

The target in assay [5] is Epithelial discoidin domain-containing receptor 1 (Homo sapiens, UniProt Q08345).
Chain of Epithelial discoidin domain-containing receptor 1 (Q08345 whole entry, the tested form may be a part): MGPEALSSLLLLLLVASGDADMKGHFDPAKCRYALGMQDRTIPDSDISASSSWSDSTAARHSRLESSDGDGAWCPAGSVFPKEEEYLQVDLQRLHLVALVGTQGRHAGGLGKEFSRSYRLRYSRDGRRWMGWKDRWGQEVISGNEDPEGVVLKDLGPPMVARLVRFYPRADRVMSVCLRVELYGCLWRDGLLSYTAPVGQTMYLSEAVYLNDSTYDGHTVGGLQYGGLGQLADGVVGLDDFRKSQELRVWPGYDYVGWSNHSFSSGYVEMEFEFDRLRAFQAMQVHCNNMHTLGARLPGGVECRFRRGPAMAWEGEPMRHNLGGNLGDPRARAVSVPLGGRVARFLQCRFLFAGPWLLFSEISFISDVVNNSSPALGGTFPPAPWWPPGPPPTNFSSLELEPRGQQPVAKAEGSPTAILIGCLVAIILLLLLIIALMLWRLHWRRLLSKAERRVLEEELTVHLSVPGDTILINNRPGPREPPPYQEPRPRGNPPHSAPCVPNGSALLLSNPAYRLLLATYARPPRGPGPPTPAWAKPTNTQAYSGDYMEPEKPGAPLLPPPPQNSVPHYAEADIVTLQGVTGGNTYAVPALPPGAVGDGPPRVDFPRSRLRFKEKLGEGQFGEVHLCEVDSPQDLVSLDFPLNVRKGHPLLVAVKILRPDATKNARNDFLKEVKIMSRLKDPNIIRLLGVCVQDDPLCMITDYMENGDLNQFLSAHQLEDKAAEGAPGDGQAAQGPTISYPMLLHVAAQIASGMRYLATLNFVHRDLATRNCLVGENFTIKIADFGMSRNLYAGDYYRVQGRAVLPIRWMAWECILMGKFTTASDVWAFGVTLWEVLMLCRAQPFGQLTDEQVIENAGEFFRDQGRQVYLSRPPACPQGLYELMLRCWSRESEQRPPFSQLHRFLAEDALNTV
The target in assay [6] is Ras-related protein Rab-6A (Homo sapiens, UniProt P20340).
Chain of Ras-related protein Rab-6A (P20340 whole entry): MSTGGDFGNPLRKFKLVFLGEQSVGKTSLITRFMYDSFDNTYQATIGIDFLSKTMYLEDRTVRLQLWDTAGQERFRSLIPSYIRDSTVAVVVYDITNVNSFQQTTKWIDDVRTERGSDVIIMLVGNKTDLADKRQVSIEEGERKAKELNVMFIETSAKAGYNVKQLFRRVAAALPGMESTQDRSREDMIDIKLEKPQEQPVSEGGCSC
Assay [7] addresses 5'-AMP-activated protein kinase catalytic subunit alpha-1 (Homo sapiens, UniProt Q13131).
Assay [8] deals with T3, Activin receptor type-1 (Homo sapiens, UniProt Q04771).
T3 sequence (Q04771 whole entry): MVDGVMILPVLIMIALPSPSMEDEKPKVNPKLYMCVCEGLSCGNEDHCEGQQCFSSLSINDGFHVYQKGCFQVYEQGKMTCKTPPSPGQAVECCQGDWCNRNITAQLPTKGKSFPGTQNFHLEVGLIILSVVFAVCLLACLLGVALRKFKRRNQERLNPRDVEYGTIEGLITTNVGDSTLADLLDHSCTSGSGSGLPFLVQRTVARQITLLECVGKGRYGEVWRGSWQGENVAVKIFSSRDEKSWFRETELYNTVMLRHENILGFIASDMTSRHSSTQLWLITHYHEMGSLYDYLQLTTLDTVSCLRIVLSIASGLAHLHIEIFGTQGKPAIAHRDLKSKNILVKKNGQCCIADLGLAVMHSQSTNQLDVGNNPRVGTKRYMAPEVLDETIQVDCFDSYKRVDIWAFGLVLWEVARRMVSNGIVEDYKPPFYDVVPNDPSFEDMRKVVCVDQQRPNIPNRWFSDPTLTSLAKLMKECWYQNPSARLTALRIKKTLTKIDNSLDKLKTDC

The source made the active and inactive calls.

As a reminder, the Kd is a measure of binding affinity in units of concentration.
Further: in the data inactive means no Kd found up to 30 µM.

Chain of 5'-AMP-activated protein kinase catalytic subunit alpha-1 (Q13131 whole entry): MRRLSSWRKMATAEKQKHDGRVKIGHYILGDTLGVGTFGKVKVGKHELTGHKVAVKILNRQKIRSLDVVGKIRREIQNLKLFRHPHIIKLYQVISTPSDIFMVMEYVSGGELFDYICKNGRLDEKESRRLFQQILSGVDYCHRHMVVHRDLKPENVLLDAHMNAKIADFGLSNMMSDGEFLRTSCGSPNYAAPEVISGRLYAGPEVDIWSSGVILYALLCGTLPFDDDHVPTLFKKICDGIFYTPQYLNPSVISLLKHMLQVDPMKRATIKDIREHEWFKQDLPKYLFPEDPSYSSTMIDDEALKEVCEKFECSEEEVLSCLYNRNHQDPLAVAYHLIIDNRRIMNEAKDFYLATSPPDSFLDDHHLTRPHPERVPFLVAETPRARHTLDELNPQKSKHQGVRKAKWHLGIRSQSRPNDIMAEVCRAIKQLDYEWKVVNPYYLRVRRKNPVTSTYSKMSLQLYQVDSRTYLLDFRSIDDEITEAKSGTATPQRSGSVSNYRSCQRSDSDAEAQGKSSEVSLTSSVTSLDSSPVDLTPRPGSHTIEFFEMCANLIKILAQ

Take `OCCn1cc(-c2cnc3nnn(Cc4ccc5ncccc5c4)c3n2)cn1` [PF-04217903]: the Kd in assay [1], in assay [2], in assay [3], in assay [4], in assay [5] and in assay [6] was > 30 µM (inactive) each time.
As to `CCn1c(-c2nonc2N)nc2c(C#CC(C)(C)O)ncc(OC[C@H]3CCCNC3)c21` [GSK-690693], the Kd is > 30 µM (inactive) in assay [1], 0.573 µM (active) in assay [4] and > 30 µM (inactive) in assay [6].
For `Cc1cc(Nc2cc(N3CCN(C)CC3)nc(/C=C/c3ccccc3)n2)n[nH]1` [ENMD-2076], the Kd in assay [1] was > 30 µM (inactive); in assay [2], 2.35 µM (active); in assay [7] it was > 30 µM (inactive); in assay [3] it was > 30 µM (inactive); in assay [4] it was > 30 µM (inactive); in assay [5], 0.755 µM (active). In assay [6], the Kd was > 30 µM (inactive).
`Nc1nc(N)c2nc(-c3cccc(O)c3)c(-c3cccc(O)c3)nc2n1` [TG100-115]: the Kd in assay [1], in assay [4] and in assay [6] was > 30 µM (inactive) each time.
With `CN1CCN(c2ccc3nc(-c4c(N)c5c(F)cccc5[nH]c4=O)[nH]c3c2)CC1` [DOVITINIB], the Kd in assay [1], in assay [4] and in assay [6] was > 30 µM (inactive) in each case.
`O=C(Nc1cccc(Cl)c1)Nc1ncc(CCNc2ncnc3ccsc23)s1` [SNS-314]: the Kd in assay [1] is > 30 µM (inactive); in assay [2], > 30 µM (inactive); in assay [8], > 30 µM (inactive); in assay [3] it was > 30 µM (inactive); in assay [4], > 30 µM (inactive); in assay [5] it was 0.14 µM (active). The Kd in assay [6] is > 30 µM (inactive).
Consider `CCc1cnn2c(NCc3ccc[n+]([O-])c3)cc(N3CCCC[C@H]3CCO)nc12` [DINACICLIB], for which the Kd in assay [1], in assay [2], in assay [8], in assay [3], in assay [4] and in assay [5] was > 30 µM (inactive) in each case. In addition, the Kd in assay [6] was > 30 µM (inactive).
In the case of `Cc1nc(N)sc1-c1ccnc(Nc2ccc(N3CCOCC3)cc2)n1` [CYC-116], the Kd in assay [1] is > 30 µM (inactive); in assay [2], 0.3 µM (active); in assay [8] it was 0.396 µM (active); in assay [4], > 30 µM (inactive); in assay [5] it was > 30 µM (inactive); in assay [6], > 30 µM (inactive).
For `Cc1cn(-c2cc(NC(=O)c3ccc(C)c(Nc4nccc(-c5cccnc5)n4)c3)cc(C(F)(F)F)c2)cn1` [NILOTINIB], the Kd in assay [1], in assay [4] and in assay [6] was > 30 µM (inactive) throughout.

The values are drawn from ChEMBL document CHEMBL3991601, “The target landscape of clinical kinase drugs” (Science, 2017).
